The text below walks through data of US5631354A, “5-O-desosaminylerythronolide derivatives” (Taisho Pharmaceutical Co., Ltd., priority 1991, dated 1997).

Test in all cases: in vitro antibacterial activity (MIC measuring method of Japanese Chemotherapeutic Association)
Holding throughout (type): cell-based

One assay concerns E. faecalis CSJ 1212. Conditions: Enterococcus faecalis. The protocol:
(§1) The in vitro antibacterial activity of the compounds of the present invention against various test bacteria was determined according to the MIC measuring method of Japanese Chemotherapeutic Association by using a sensitive disc media (available from Eiken Chemical Co.). 6-O-methylerythromycin A was used as a reference agent in Table 1, and erythromycin A in Table 2.

Another assay has as its system S. aureus 209P-JC. The following applies: Staphylococcus aureus, read-out: MIC value (minimum inhibitory concentration). The method, then: as §1
The next assay relates to S. aureus B1. Conditions: Staphylococcus aureus. The protocol:
as §1

The test system of a further assay is S. aureus C1. Conditions: Staphylococcus aureus. The method, then: as §1
For a further assay, the system named is S. aureus J-109. The following applies: Staphylococcus aureus, J109, sensitive disc media, read-out: MIC value (minimum inhibitory concentration). The protocol: as §1
The next assay relates to S. aureus Smith 4. The following applies: Staphylococcus aureus, SMITH4, sensitive disc media, read-out: MIC value (minimum inhibitory concentration). The protocol:
as §1

A further assay has as its system S. epidermides IID 866. The following applies: read-out: MIC value (minimum inhibitory concentration). The protocol:
as §1

[1] abbreviates: CSJ1212, E. faecalis CSJ 1212, sensitive disc media, read-out: MIC value (minimum inhibitory concentration).
Where [2] appears, read: S. aureus 209P-JC, sensitive disc media.
Setting [3] is: C1, read-out: MIC value (minimum inhibitory concentration).
[4] abbreviates: CSJ1212, read-out: MIC value (minimum inhibitory concentration).
Setting [5] is: B1, read-out: MIC value (minimum inhibitory concentration).

Values after ≈ are worked out from the molar mass of the structure shown. Where two headings read alike, the source gives them in different places.

Regarding `CC[C@H]1OC(=O)[C@H](C)[C@@H](OC(=O)Cc2ccc([N+](=O)[O-])cc2)[C@H](C)[C@@H](O[C@@H]2O[C@H](C)C[C@H](N(C)C)[C@H]2O)[C@](C)(OC)C[C@@H](C)C(=O)[C@H](C)[C@H]2OC(=O)O[C@@]21C` [Example 9, 3-O-(4-nitrophenyl)acetyl-5-O-desosaminyl-6-O-methylerythronolide A 11,12 cyclic carbonate], the MIC is 0.05 µg/mL (≈ 0.0642 µM) with E. faecalis CSJ 1212 (setting [1]); 0.025 µg/mL (≈ 0.0321 µM) in the assay on S. aureus 209P-JC (setting [2]); 0.2 µg/mL (≈ 0.257 µM) with S. aureus B1 (S. aureus B1, sensitive disc media, read-out: MIC value (minimum inhibitory concentration)); 0.05 µg/mL (≈ 0.0642 µM) in the assay with S. aureus C1 (setting [3]); > 100 µg/mL with S. aureus J-109; 0.05 µg/mL (≈ 0.0642 µM) in the assay on S. aureus Smith 4. In addition, the MIC in the assay with S. epidermides IID 866 was determined as 0.05 µg/mL (≈ 0.0642 µM).
`CC[C@H]1OC(=O)[C@H](C)[C@@H](O[C@H]2C[C@@](C)(OC)[C@@H](O)[C@H](C)O2)[C@H](C)[C@@H](O[C@@H]2O[C@H](C)C[C@H](N(C)C)[C@H]2O)[C@](C)(O)C[C@@H](C)C(=O)[C@H](C)[C@@H](O)[C@]1(C)O` [erythromycin A, reference compound]: the MIC with E. faecalis CSJ 1212 (setting [4]) was 0.78 µg/mL (≈ 1.06 µM); in the assay on S. aureus 209P-JC (209P), 0.1 µg/mL (≈ 0.136 µM); in the assay with S. aureus B1 (setting [5]), > 100 µg/mL; with S. aureus C1 (setting [3]), > 100 µg/mL; with S. aureus J-109, > 100 µg/mL; in the assay on S. aureus Smith 4, 0.2 µg/mL (≈ 0.273 µM). Also, the MIC in the assay on S. epidermides IID 866 was determined as 0.1 µg/mL (≈ 0.136 µM).
As to `CC[C@H]1OC(=O)[C@H](C)[C@@H](O[C@H]2C[C@@](C)(OC)[C@@H](O)[C@H](C)O2)[C@H](C)[C@@H](O[C@@H]2O[C@H](C)C[C@H](N(C)C)[C@H]2O)[C@](C)(OC)C[C@@H](C)C(=O)[C@H](C)[C@@H](O)[C@]1(C)O` [6-O-methylerythromycin A, reference compound], the MIC is 0.78 µg/mL (≈ 1.04 µM) with E. faecalis CSJ 1212 (setting [4]); 0.05 µg/mL (≈ 0.0668 µM) in the assay with S. aureus 209P-JC (209P); > 100 µg/mL with S. aureus B1 (setting [5]); 25 µg/mL (≈ 33.4 µM) in the assay with S. aureus C1 (S. aureus C1, sensitive disc media, read-out: MIC value (minimum inhibitory concentration)); > 100 µg/mL in the assay on S. aureus J-109; 0.1 µg/mL (≈ 0.134 µM) in the assay on S. aureus Smith 4. The MIC in the assay with S. epidermides IID 866 was 0.1 µg/mL (≈ 0.134 µM).
For the compound `CC[C@H]1OC(=O)[C@H](C)[C@@H](OC(=O)Cc2ccc([N+](=O)[O-])cc2[N+](=O)[O-])[C@H](C)[C@@H](O[C@@H]2O[C@H](C)C[C@H](N(C)C)[C@H]2O)[C@](C)(OC)C[C@@H](C)C(=O)[C@H](C)[C@@H](O)[C@]1(C)O` [Example 3, 3-O-(2,4-dinitrophenyl)acetyl-5-O-desosaminyl-6-O-methylerythronolide A], the MIC is 0.1 µg/mL (≈ 0.125 µM) in the assay on E. faecalis CSJ 1212 (setting [4]); 0.05 µg/mL (≈ 0.0627 µM) in the assay on S. aureus 209P-JC (209P); 0.2 µg/mL (≈ 0.251 µM) with S. aureus B1 (setting [5]); 0.1 µg/mL (≈ 0.125 µM) with S. aureus C1 (setting [3]); > 100 µg/mL with S. aureus J-109; 0.1 µg/mL (≈ 0.125 µM) with S. aureus Smith 4. For the same compound, in the assay with S. epidermides IID 866, the MIC is 0.1 µg/mL (≈ 0.125 µM).
Turning to `CC[C@H]1OC(=O)[C@H](C)[C@@H](OC(=O)Cc2ccc([N+](=O)[O-])cc2)[C@H](C)[C@@H](O[C@@H]2O[C@H](C)C[C@H](N(C)C)[C@H]2O)[C@](C)(O)C[C@@H](C)C(=NO)[C@H](C)[C@H]2OC(=O)O[C@@]21C` [Example 15, 3-0-(4-nitrophenyl)acetyl-5-O-desosaminylerythronolide A 9-oxime 11,12-cyclic carbonate], the MIC with E. faecalis CSJ 1212 (setting [1]) was 0.05 µg/mL (≈ 0.0641 µM); with S. aureus 209P-JC (209P), 0.05 µg/mL (≈ 0.0641 µM); in the assay with S. aureus B1 (setting [5]), 0.1 µg/mL (≈ 0.128 µM); in the assay on S. aureus C1 (setting [3]), 0.78 µg/mL (≈ 1 µM); with S. aureus J-109, > 100 µg/mL; in the assay on S. aureus Smith 4, 0.05 µg/mL (≈ 0.0641 µM). Also, the MIC in the assay on S. epidermides IID 866 stood at 0.05 µg/mL (≈ 0.0641 µM).
On to `CC[C@H]1OC(=O)[C@H](C)[C@@H](OC(=O)Cc2ccc([N+](=O)[O-])cc2)[C@H](C)[C@@H](O[C@@H]2O[C@H](C)C[C@H](N(C)C)[C@H]2O)[C@](C)(OC)C[C@@H](C)C(=NO)[C@H](C)[C@H]2OC(=O)O[C@@]21C` [Example 1, 3-O-(4-nitrophenyl)acetyl-5-O-desosaminyl-6-O-methylerythronolide A 9-oxime 11,12cyclic carbonate], for which the MIC with E. faecalis CSJ 1212 (setting [1]) is 0.05 µg/mL (≈ 0.063 µM); with S. aureus 209P-JC (setting [2]) it was 0.025 µg/mL (≈ 0.0315 µM); with S. aureus B1 (setting [5]) it was 0.1 µg/mL (≈ 0.126 µM); in the assay with S. aureus C1 (setting [3]) it was 0.1 µg/mL (≈ 0.126 µM); in the assay on S. aureus J-109 it was > 100 µg/mL; with S. aureus Smith 4, 0.05 µg/mL (≈ 0.063 µM). Further, the MIC in the assay on S. epidermides IID 866 worked out at 0.05 µg/mL (≈ 0.063 µM).
